In brackets after ≈: the same amount, converted by molar mass.

For test [1], the system named is Staphylococcus aureus. Briefly: In vitro antibacterial activity against Staphylococcus aureus strains UC12673, UC9213, ATCC 29213, and UC9271 (SA); range is 8-16. It is filed as functional.
Test [2] has as its system Staphylococcus epidermidis. Briefly: In vitro antibacterial activity against Staphylococcus epidermidis strains UC12084, 30031, and CDC-CNS90 (SE). It is filed as functional.
A further test relates to Moraxella catarrhalis. Briefly: In vitro antibacterial activity against Moraxella catarrhalis strains 30607 and 30603 (MC). It is filed as functional.
In test [3] the test system is Staphylococcus aureus. Briefly: In vitro antibacterial activity against linezolid-resistant Staphylococcus aureus ATCC 29213 (LRSA). The test is classed as functional.
A further test deals with Enterococcus faecium. Briefly: In vitro antibacterial activity against vancomycin-resistant Enterococcus faecium UC12712 (VRE).
The test system of test [4] is Haemophilus influenzae. Briefly: In vitro antibacterial activity against Haemophilia influenzae strains 30063 and ATCC 31517 (HI); range is 16-32. It is filed as functional.
Test [5] deals with Staphylococcus aureus. Briefly: In vitro antibacterial activity against Staphylococcus aureus strains UC12673, UC9213, ATCC 29213, and UC9271 (SA); range is 1-2. The test is classed as functional.
For test [6], the system named is Streptococcus pneumoniae. Briefly: In vitro antibacterial activity against Streptococcus pneumoniae strains ATCC 6305 and 31573 (SPN); range is 0.5-1.
Test [7] deals with Staphylococcus epidermidis. Briefly: In vitro antibacterial activity against Staphylococcus epidermidis strains UC12084, 30031, and CDC-CNS90 (SE); range is 0.5-1. The test is classed as functional.
In test [8] the test system is Haemophilus influenzae. Briefly: In vitro antibacterial activity against Haemophilia influenzae strains ATCC 30063 and ATCC 31517. It is filed as functional.
Test [9] has as its system Staphylococcus epidermidis. Briefly: In vitro antibacterial activity against Staphylococcus epidermidis strains UC12084, 30031, and CDC-CNS90 (SE); range is 32->64. The test is classed as functional.
The subject of test [10] is Staphylococcus aureus. Briefly: In vitro antibacterial activity against Staphylococcus aureus strains UC12673, UC9213, ATCC 29213, and UC9271 (SA). The test is classed as functional.
Test [11] concerns Streptococcus pneumoniae. Briefly: In vitro antibacterial activity against Streptococcus pneumoniae strains ATCC 6305 and 31573 (SPN); range is 32-64. It is filed as functional.
Test [12] relates to Staphylococcus aureus. Briefly: In vitro antibacterial activity against Staphylococcus aureus strains UC12673, UC9213, ATCC 29213, and UC9271 (SA); range is 32-64. It is filed as functional.
Test [13] has as its system Streptococcus pneumoniae. Briefly: In vitro antibacterial activity against Streptococcus pneumoniae strains ATCC 6305 and 31573 (SPN); range is 8-16.
The subject of test [14] is Staphylococcus epidermidis. Briefly: In vitro antibacterial activity against Staphylococcus epidermidis strains UC12084, 30031, and CDC-CNS90 (SE); range is 16-32. The test is classed as functional.
The subject of test [15] is Staphylococcus epidermidis. Briefly: In vitro antibacterial activity against Staphylococcus epidermidis strains UC12084, 30031, and CDC-CNS90 (SE); range is 32-64. It is filed as functional.

With `O=C(CC(F)(F)F)NC[C@H]1CN(c2ccc(N3CCS(=O)(=O)CC3)c(F)c2)C(=O)O1`, the MIC against Staphylococcus aureus [1] was 8 µg/mL (≈ 17.6 µM); in [2], 4 µg/mL (≈ 8.82 µM); in the test on Moraxella catarrhalis it was 16 µg/mL (≈ 35.3 µM); with Staphylococcus aureus [3], more than 64 µg/mL; in the test on Enterococcus faecium it was 4 µg/mL (≈ 8.82 µM); against Haemophilus influenzae [4] it was 16 µg/mL (≈ 35.3 µM).
As for `CO/N=C/c1ccc(/C=C/C(=O)NC[C@H]2CN(c3ccc(N4CC[S+]([O-])CC4)c(F)c3)C(=O)O2)cc1`, the MIC in the test with Staphylococcus aureus [5] stood at 1 µg/mL (≈ 1.94 µM); in the test with Moraxella catarrhalis, 4 µg/mL (≈ 7.77 µM); in the test on Staphylococcus aureus [3], 64 µg/mL (≈ 124 µM); in the test on Enterococcus faecium, 2 µg/mL (≈ 3.89 µM); against Streptococcus pneumoniae [6] it was 0.5 µg/mL (≈ 0.972 µM); in [7], 0.5 µg/mL (≈ 0.972 µM). For the same molecule, in the test with Haemophilus influenzae [8], the MIC is more than 64 µg/mL.
As to `CC(C)CCC(=O)NC[C@H]1CN(c2ccc(N3CC[S+]([O-])CC3)c(F)c2)C(=O)O1`, the MIC in [9] is 32 µg/mL (≈ 75.2 µM); with Moraxella catarrhalis, more than 64 µg/mL; in the test on Staphylococcus aureus [10], not below 64 µg/mL; in the test on Staphylococcus aureus [3], more than 64 µg/mL; with Enterococcus faecium it was more than 64 µg/mL; against Haemophilus influenzae [8], more than 64 µg/mL.
In the case of `NCCC(O)C(=O)NC[C@H]1CN(c2ccc(C3CCS(=O)(=O)CC3)c(F)c2)C(=O)O1` (stereo partly drawn), the MIC in test [2] was more than 64 µg/mL; against Moraxella catarrhalis it was more than 64 µg/mL; against Staphylococcus aureus [10], more than 64 µg/mL; in the test on Staphylococcus aureus [3], more than 64 µg/mL; against Streptococcus pneumoniae [11], 32 µg/mL (≈ 72.2 µM); in the test with Haemophilus influenzae [8], more than 64 µg/mL.
Take `O=C(NC[C@H]1CN(c2ccc(N3CC[S+]([O-])CC3)c(F)c2)C(=O)O1)c1ccccc1`: the MIC in the test on Moraxella catarrhalis was more than 64 µg/mL; against Staphylococcus aureus [3], more than 64 µg/mL; in the test on Enterococcus faecium it was 32 µg/mL (≈ 74.2 µM); in the test with Staphylococcus aureus [12], 32 µg/mL (≈ 74.2 µM); in the test with Streptococcus pneumoniae [13], 8 µg/mL (≈ 18.5 µM); in test [14], 16 µg/mL (≈ 37.1 µM). Moreover, the MIC with Haemophilus influenzae [8] is more than 64 µg/mL.
Consider `COc1ccc(OC)c(C(=O)NC[C@H]2CN(c3ccc(N4CC[S+]([O-])CC4)c(F)c3)C(=O)O2)c1`, for which the MIC was more than 64 µg/mL in the test on Moraxella catarrhalis; not below 64 µg/mL with Staphylococcus aureus [10]; more than 64 µg/mL against Staphylococcus aureus [3]; more than 64 µg/mL in the test on Enterococcus faecium; more than 64 µg/mL against Haemophilus influenzae [8]; 32 µg/mL (≈ 65.1 µM) in test [15].

For the origin of these results see ChEMBL document CHEMBL1136459, “New antibacterial tetrahydro-4(2H)-thiopyran and thiomorpholine S-oxide and S,S-dioxide phenyloxazolidinones” (Bioorg Med Chem Lett, 2003).
